Values quoted from earlier work, collected in patent US20020032188A1, “Compositions and methods for treatment of anal fissure” (priority 2000, published 2002).

Details: topical ISDN

For `O=[N+]([O-])O[C@H]1CO[C@H]2[C@@H]1OC[C@H]2O[N+](=O)[O-]` [ISDN, isosorbide dinitrate], the “treatment of chronic anal fissure, result reported” value is listed as “effective treatment for chronic anal fissure”.
